Data: US4853470A, “3-(piperidinyl)- and 3-(pyrrolidinyl)-1H-indazoles” (Hoechst-Roussel Pharmaceuticals, Inc., priority 1988, dated 1989)
Where two headings read alike, the source gives them in different places.

Legend:
[1] = system: tetrabenazine induced ptosis; test: tetrabenazine induced ptosis assay (antidepressant activity); type: in vivo, mice; conditions: Mus musculus, ip, read-out: ED50, inhibition of ptosis
Text: The 3-(piperidinyl)- and 3-(pyrrolidinyl)-1H-indazoles of the present invention are also useful as antidepressants by virtue of their ability to elicit an antidepressant response in mammals. […] Thus, for example,. the intraperitoneal (i.p.) dose effecting an estimated 50% inhibition of ptosis (ED50) in mice produced in this assay is as follows: […]

[2] = system: mean arterial blood pressure; test: antihypertensive activity, indirect tail cuff method, spontaneous hypertensive rat; type: in vivo; conditions: third day
Protocol: The compounds of the invention are also useful as antihypertensive agents due to their ability to depress blood pressure in mammals. Antihypertensive activity is measured in the spontaneous hypertensive rat by the indirect tail cuff method described in "Methods in Pharmacology," A. Schwartz, Ed., Vol. I, Appleton-Century Crofts, N.Y., 1971, p. 135. In this procedure a group of five animals are treated orally (p.o.) for three days with the test compound in relation to the control group of the same number. The drop in blood pressure is measured on the third day following administration. The antihypertensive activities of some of the compounds, expressed as mm decrease in mean arterial blood pressure are given below: […]

Structure (SMILES)	ED50 ([1]; estimated 50% inhibition)	further results
CN1CCC(c2nn(-c3ccccc3F)c3ccccc23)CC1.Cl [1-(2-Fluorophenyl)-3-(1-methyl-4-piperidinyl)-1H-indazole hydrochloride]	1.7 mg/kg	–
CN1CCC(c2nn(-c3cccc(F)c3)c3ccccc23)CC1.Cl [1-(3-Fluorophenyl)-3-(1-methyl-4-piperidinyl)-1H-indazole hydrochloride]	5 mg/kg	–
COC(=N)N1CCC(c2n[nH]c3ccccc23)CC1 [4-(1H-indazol-3-yl)piperidine-1-carboximidic acid methyl ester]	–	Decrease in Blood Pressure ([2]; 3 mg/kg p.o.): 47 mm Hg
COC(=N)N1CCC(c2n[nH]c3cc(F)ccc23)CC1 [4-(6-fluoro-1H-indazol-3-yl)piperidine-1-carboximidic acid methyl ester]	–	Decrease in Blood Pressure ([2]; 30 mg/kg p.o.): 88 mm Hg
CN1CCC(c2nn(-c3ccccc3F)c3cc(F)ccc23)CC1.O=C(O)/C=C/C(=O)O [6-Fluoro-1-(2-fluorophenyl)-3-(1-methyl-4-piperidinyl)-1H-indazole fumarate]	6.3 mg/kg	–
CN(C)CCC=C1c2ccccc2CCc2ccccc21 [amitriptyline, reference compound]	1.5 mg/kg	–
N=C(N)NCCN1CCCCCCC1 [guanethidine, reference compound]	–	Decrease in Blood Pressure ([2]; 50 mg/kg p.o.): 20 mm Hg
CN(C)CCCN1c2ccccc2CCc2ccccc21 [imipramine, reference compound]	–	ED50 [1]: 1.3 mg/kg
